The results in this text go back to US12240811B2, “N-heterocyclic five-membered ring-containing capsid protein assembly inhibitor, pharmaceutical composition and uses thereof” (CHIA TAI TIANQING PHARMACEUTICAL GROUP CO., LTD., priority 2019, dated 2025).

Data set [1] in a line: In vitro cytotoxicity (CCK-8). Particulars: human, HepG2.2.15 cells. The data set is classed as cell-based. How it is done: A bottle of HepG2.2.15 cells (Wuhan Institute of Virology) in good exponential growth state was taken, washed once by adding 5 mL PBS, and then thereto was added 2 mL trypsin. The sample was digested in a cell culture incubator, and taken out from time to time and observed under a microscope. When the cells just fell off, 1 mL trypsin was discarded. The residual liquid was placed in a cell culture incubator at 37° C. and digested for 8-15 min. The cells were taken out and observed under a microscope (whether the cells were individually round and there was no adhesion between the cells). 5 mL MEM medium was added for cell resuspension. The cells were then subjected to cell counting with a cell counter, diluted with a complete medium, and adjusted to a cell density of 2*10^5 cells/mL. Then the cells were seeded at 100 μL/well in a 96-well plate with a multi-channel pipette (the 96-well plate was coated with 50 μg/mL Collagen I solution in advance), and cultured in a constant temperature CO2 incubator for 24 h. The cells were treated by drug administration, and fresh medium containing the compound was used to replace the spent medium every 3 days. […] After 1 to 2 hours, the absorbance was detected with microplate reader at 450 nm, and the inhibition rate and the CC50 were calculated.

For a further data set, the target named is CYP 2D6 (Homo sapiens (Human), UniProt P10635). Nature of the data set: CYP450 enzyme inhibition study, CYP 2D6. Type of data set: in vitro ADME. The method, then:
(§1) 500 μL of a final incubation system contains 50 μL of human liver microsomes (protein concentration: 0.2 mg/mL, Corning), 1 μL of mixed CYP450 specific substrates (CYP1A2, CYP 2B6, CYP 2C9, CYP2C19, CYP 2D6, and CYP 3A4), 398 μL PBS buffer (pH7.4), 1 μL specific positive inhibitor (positive control group) or the test compound (formulated with acetonitrile), and 50 μL NADPH+MgCl2. Duplicate incubation systems of 0.5 mL each were formulated for each CYP450 subtype. A total volume of 450 μL of a uniformly mixed solution of the substrate and the enzyme was formulated in each tube, and the solution and NADPH were pre-incubated at 37° C. for 5 minutes, respectively. Then 50 μL of the mixed solution of NADPH+MgCl2 was added for reaction. 50 μL of the reaction solution was taken out at 30 minutes, and the reaction was terminated with 300 μL of ice acetonitrile containing an internal standard. In addition, two control groups of 500 μL each without NADPH were prepared in parallel as a negative control group.
(§2) Sample pre-treatment: To 50 μL of the incubated sample was added 300 μL of ice acetonitrile containing an internal standard, and then precipitated. After vortexing for 5 minutes, the sample was centrifugated (12000 rpm, 4° C.) for 10 minutes. 75 μL of the supernatant was pipetted, and 75 μL of ultrapure water was added thereto for dilution and mixed uniformly. […]

A further data set concerns the target CYP 2B6 (Homo sapiens (Human), UniProt P20813). Nature of the data set: CYP450 enzyme inhibition study, CYP 2B6. Particulars: human liver microsomes; read-out: Subtypes IC50 2B6. Type of data set: in vitro ADME. How it is done: as §1, §2
Background: Liver microsomes are vesicles of endoplasmic reticulum, rich in cytochrome P450 enzymes.

Another data set has as its target CYP1A2 (Homo sapiens (Human), UniProt P05177). Nature of the data set: CYP450 enzyme inhibition study, CYP1A2. Type of data set: in vitro ADME. The method, then:
as §1, §2

Data set [2] can be described thus: Plasma protein binding assay, human plasma. Type of data set: in vitro ADME. How it is done:
(§3) Formulation of plasma sample: 495 μL of blank plasmas of the corresponding species (mouse, rat, dog, monkey, and human) were drawn respectively, and thereto was added 5 μL of the corresponding test compound solution or positive control to give plasma sample solutions having a plasma drug concentration of the compound of 1 μM, and 10 μM, respectively (formulated with acetonitrile).
(§4) The pre-treated dialysis membrane was placed in a high-throughput equilibrium dialysis device, and 100 μL of the plasma sample solution and PBS buffer solution were drawn and added respectively to both sides of the dialysis membrane (sample side and buffer side) (n=3). After the equilibration device was sealed with a film, it was incubated at 37° C. overnight (100 rpm). After dialysis equilibrium was reached, 50 μL samples were drawn from the sample side and the buffer side, respectively, and the reaction was terminated by adding ice acetonitrile containing an internal standard.
(§5) Sample pre-treatment: To 50 μL of the plasma-side sample was added 450 μL of ice acetonitrile containing an internal standard, and then precipitated. After vortexing for 5 minutes, the sample was centrifugated (12000 rpm, 4° C.) for 10 minutes. 75 μL of the supernatant was pipetted, and 75 μL of ultrapure water was added thereto for dilution and mixed uniformly. 1 μL of the resulting solution was injected for analysis. […]

Data set [3] in a line: Plasma protein binding assay, mouse plasma. The data set is classed as in vitro ADME. How it is done: as §3, §4, §5
A short description of data set [4]: In vivo pharmacokinetics (PK) study in rats. Details: species or system SD rats. Particulars: for half-life: SD, in vivo; for AUC(0-t): read-out: AUC(0-48 h).
Where [5] appears, read: rat, plasma, SD rats, IV 5 mg/kg.
The mark [6] stands for this setting: rat, plasma, SD rats, PO 10 mg/kg.

Structures are written as SMILES. Where two headings read alike, the source gives them in different places. Some results are limits rather than exact numbers.

Sequence of CYP 2D6 (P10635 whole entry): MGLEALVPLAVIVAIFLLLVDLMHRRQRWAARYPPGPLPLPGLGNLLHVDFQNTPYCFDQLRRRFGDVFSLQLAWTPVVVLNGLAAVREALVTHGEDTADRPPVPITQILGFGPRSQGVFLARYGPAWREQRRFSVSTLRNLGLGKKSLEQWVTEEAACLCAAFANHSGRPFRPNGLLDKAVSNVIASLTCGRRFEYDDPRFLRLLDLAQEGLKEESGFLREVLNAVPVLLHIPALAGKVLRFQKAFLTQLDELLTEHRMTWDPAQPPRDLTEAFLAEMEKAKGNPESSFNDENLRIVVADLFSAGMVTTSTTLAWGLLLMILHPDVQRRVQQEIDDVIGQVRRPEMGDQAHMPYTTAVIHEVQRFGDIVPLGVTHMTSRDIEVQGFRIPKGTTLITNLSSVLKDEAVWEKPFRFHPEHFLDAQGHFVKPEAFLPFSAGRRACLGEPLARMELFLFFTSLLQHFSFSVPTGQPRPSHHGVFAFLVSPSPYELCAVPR
Sequence of CYP1A2 (P05177 whole entry): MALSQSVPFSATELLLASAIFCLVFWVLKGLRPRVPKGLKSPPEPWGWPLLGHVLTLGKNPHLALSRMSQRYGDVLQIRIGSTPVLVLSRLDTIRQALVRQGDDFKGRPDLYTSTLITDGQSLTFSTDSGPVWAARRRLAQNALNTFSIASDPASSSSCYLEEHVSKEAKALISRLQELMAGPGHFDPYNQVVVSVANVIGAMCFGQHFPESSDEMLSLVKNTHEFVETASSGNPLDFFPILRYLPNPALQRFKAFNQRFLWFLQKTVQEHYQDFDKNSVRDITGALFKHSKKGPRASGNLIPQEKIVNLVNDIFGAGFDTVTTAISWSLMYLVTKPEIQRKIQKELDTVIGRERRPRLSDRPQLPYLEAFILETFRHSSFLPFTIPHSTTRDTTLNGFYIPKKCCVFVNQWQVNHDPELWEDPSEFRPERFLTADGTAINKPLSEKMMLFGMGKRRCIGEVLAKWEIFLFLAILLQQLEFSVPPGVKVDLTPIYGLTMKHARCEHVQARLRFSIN
Sequence of CYP 2B6 (P20813 whole entry): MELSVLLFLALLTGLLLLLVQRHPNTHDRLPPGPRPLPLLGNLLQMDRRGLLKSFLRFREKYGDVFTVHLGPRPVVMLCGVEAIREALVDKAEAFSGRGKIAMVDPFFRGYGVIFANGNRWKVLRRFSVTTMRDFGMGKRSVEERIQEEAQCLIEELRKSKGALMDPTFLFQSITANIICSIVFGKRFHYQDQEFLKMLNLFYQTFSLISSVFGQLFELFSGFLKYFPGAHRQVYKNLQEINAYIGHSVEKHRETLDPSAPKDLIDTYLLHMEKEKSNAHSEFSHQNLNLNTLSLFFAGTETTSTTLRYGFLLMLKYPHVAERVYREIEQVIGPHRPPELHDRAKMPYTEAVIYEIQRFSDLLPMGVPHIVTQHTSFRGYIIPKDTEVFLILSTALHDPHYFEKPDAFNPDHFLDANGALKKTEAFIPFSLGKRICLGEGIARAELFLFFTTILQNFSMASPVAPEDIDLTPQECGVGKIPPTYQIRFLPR

In data set [1], `Cc1[nH]c(C(=O)C(=O)N[C@@H](C)C(F)(F)F)c(C)c1C(=O)Nc1ccc(F)c(C#N)c1` [Example 1, (S)—N-(3-cyano-4-fluorophenyl)-2,4-dimethyl-5-(2-oxo-2-((1,1,1-trifluoroprop-2-yl)amino)acetyl)-1H-pyrrole-3-carboxamide] yielded a CC50 at 6 days of more than 100 µM. The IC50 against CYP 2D6 is 54 µM; on CYP 2B6, more than 200 µM; against CYP1A2 it was 49 µM. Further, the “Binding rate (%) Human” value in data set [2] (1 μM) and in data set [2] (10 μM) was 97.3% in each case. For the same molecule, the “Binding rate (%) Mouse” value in data set [3] (1 μM) came out at 85.4%; in data set [3] (10 μM), 85.5%. For the same molecule, in data set [4] (SD rats, PO 10 mg/kg vs IV 5 mg/kg), the F was 100%. For the same molecule, the half-life in data set [4] (rat, iv, 5 mg/kg) is 52.8 h; in data set [4] (rat, po, 10 mg/kg), 45.6 h. Moreover, the figures for the AUC(0-inf) in data set [4] (setting [5]) and in data set [4] (setting [6]) were 148 µg·h/mL and 284 µg·h/mL, respectively. The Cmax in data set [4] (setting [5]) stood at 3510 ng/mL; in data set [4] (setting [6]), 4110 ng/mL. The clearance in data set [4] (setting [5]) was 0.5 mL/min/kg. The AUC(0-t) in data set [4] (setting [5]) was found to be 127 µg·h/mL; in data set [4] (setting [6]), 254 µg·h/mL. Besides, the Vd in data set [4] (rat, plasma, SD rats, IV 5 mg/kg, read-out: Vz) is 2.58 L/kg.

What is called CC50 is the concentration that lowers cell viability or growth by half. The low end stands for greater toxicity to the cells, the high end for lower toxicity to the cells. Broadly, the IC50 is the midpoint of a concentration-inhibition curve. Usually half-life stands for the time in which the quantity being followed falls by half. The low end stands for rapid decline, the high end for slow decline. As a reminder, the AUC(0-inf) is total exposure, with the tail of the curve extrapolated. Broadly, the Cmax is the highest concentration seen after dosing. Usually clearance stands for the volume of plasma or blood freed of the substance per unit of time. High values mean efficient removal, low ones inefficient removal.
